The structures appear in SMILES notation. Calls of active or inactive are those of the source. The rule behind the calls is not given here. Numbered stars: 1 amine (or outer) side, 2 acyl side, 3 side chain; on linkers, the order of the positions; unused ones are H or OH. Square brackets hold non-standard residues; d marks the D form. Peptide text beside a SMILES is read from it. X1 = O=C(c1ccc(C[C@H](N[*:1])C(=O)[*:2])cc1)P(=O)(O)O

Data set [1] in a line: Photodimerization of the compound exposed to UV irradiation in presence of DTT. It is filed as physicochemical.
Data set [2] can be described thus: Photodimerization of the compound exposed to UV irradiation in presence of TEMPO radical. It is filed as physicochemical.
Data set [3] has as its target T1, Tyrosine-protein phosphatase non-receptor type 1 (Homo sapiens, UniProt P18031).
T1 sequence (P18031 whole entry): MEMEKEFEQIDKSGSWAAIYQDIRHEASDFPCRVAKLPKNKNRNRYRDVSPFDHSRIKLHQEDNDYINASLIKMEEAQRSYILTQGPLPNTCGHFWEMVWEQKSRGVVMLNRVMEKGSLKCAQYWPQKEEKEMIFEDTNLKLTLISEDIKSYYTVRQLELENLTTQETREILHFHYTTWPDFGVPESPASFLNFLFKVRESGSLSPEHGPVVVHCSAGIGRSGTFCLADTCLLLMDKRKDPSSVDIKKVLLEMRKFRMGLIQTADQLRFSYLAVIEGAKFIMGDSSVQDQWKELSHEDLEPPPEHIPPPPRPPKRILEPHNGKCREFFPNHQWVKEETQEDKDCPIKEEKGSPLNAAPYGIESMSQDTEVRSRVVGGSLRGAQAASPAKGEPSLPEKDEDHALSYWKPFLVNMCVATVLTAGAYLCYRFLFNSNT
Description: Inhibition of PTP1B catalytic domain (1 to 321 amino acids) (unknown origin) expressed in Escherichia coli Rosetta (DE3) incubated for 30 mins in absence of UV irradiation with 365 nm for 45 mins by pNPP assay.

The target in data set [4] is T1, Tyrosine-protein phosphatase non-receptor type 1. Description: Inhibition of PTP1B catalytic domain (1 to 321 amino acids) (unknown origin) expressed in Escherichia coli Rosetta (DE3) incubated for 30 mins followed by UV irradiation with 365 nm for 45 mins by pNPP assay.
Data set [5] has the same target. Description: Inhibition of PTP1B catalytic domain (1 to 321 amino acids) (unknown origin) expressed in Escherichia coli Rosetta (DE3) incubated for 30 mins in absence of UV irradiation with 365 nm for 45 mins and in presence of 1 mM DTT by pNPP assay.
Data set [6] has the same target. Description: Inhibition of PTP1B catalytic domain (1 to 321 amino acids) (unknown origin) expressed in Escherichia coli Rosetta (DE3) incubated for 30 mins followed by UV irradiation with 365 nm for 45 mins in presence of 1 mM DTT by pNPP assay.
Data set [7] concerns the target T2, Tyrosine-protein phosphatase non-receptor type 1 (Homo sapiens) (UniProt P18031).
T2 sequence (whole entry): T1 sequence (P18031 whole entry)
The following applies: 35 uM.
Description: Inhibition of PTP1B catalytic domain (1 to 321 amino acids) (unknown origin) expressed in Escherichia coli Rosetta (DE3) at 35 uM incubated for 30 mins followed by UV irradiation with 365 nm for 45 mins in presence of 100 uM DTT by pNPP assay

The target in data set [8] is T2, Tyrosine-protein phosphatase non-receptor type 1 (Homo sapiens). The note with it: 10 uM.
Description: Inhibition of PTP1B catalytic domain (1 to 321 amino acids) (unknown origin) expressed in Escherichia coli Rosetta (DE3) at 10 uM incubated for 30 mins followed by UV irradiation with 365 nm for 45 mins by pNPP assay
Data set [9] has the same target. The note with it: 10 uM. This is another data set of the same source.
Description: Inhibition of PTP1B catalytic domain (1 to 321 amino acids) (unknown origin) expressed in Escherichia coli Rosetta (DE3) at 10 uM incubated for 30 mins followed by UV irradiation with 365 nm for 45 mins in presence of 1 mM DTT by pNPP assay

`Cc1ccc(C(=O)P(=O)(O)O)cc1`: the Activity result in data set [1] and in data set [2] was “Not Active” in each case.

On to `CC(=O)N[C@@H](CC(=O)O)C(=O)N[C@@H](C)C(=O)N[C@@H](CC(=O)O)C(=O)N[C@@H](CCC(=O)O)C(=O)N[C@@H](Cc1ccc(C(=O)P(=O)(O)O)cc1)C(=O)N[C@@H](CC(C)C)C(N)=O` (Ac-DADE[X1]L-NH2), for which the Ki (commonly a dissociation constant, usually derived from enzyme kinetics or from competition with a known ligand) was found to be 30 µM in data set [3], 0.39 µM in data set [4], 17.3 µM in data set [5] and 12.9 µM in [6]. Besides, the inhibition entry in [7] was “inactive”.

On to `CC[C@H](C)[C@H](NC(=O)[C@H](Cc1ccc(C(=O)P(=O)(O)O)cc1)NC(=O)[C@H](CC(N)=O)NC(C)=O)C(=O)N[C@@H](CC(=O)O)C(=O)N[C@@H](CC(C)C)C(=O)N[C@@H](CC(=O)O)C(N)=O` (Ac-N[X1]IDLD-NH2), for which the Ki in data set [3] worked out at 48.8 µM; in [4], 0.41 µM. Besides, the inhibition entry in [8] was “Active”. The inhibition entry in data set [9] was “inactive”.

The record behind these values is ChEMBL document CHEMBL3425466, “Light-switched inhibitors of protein tyrosine phosphatase PTP1B based on phosphonocarbonyl phenylalanine as photoactive phosphotyrosine mimetic” (Bioorg Med Chem, 2015).
